Active and inactive are the calls of the source. The rule behind the calls is not given here.
Experiments:
Assay type in all cases: nucleic-acid assay
Nucleic Acid [1] = test: Binding affinity to 3'-r(CUUCCAGUUCCAUAGAGA)-5' RNA assessed as change in melting temperature by spectrophotometry
Nucleic Acid [2] = test: Binding affinity to 3'-r(CUUCCAGUUUCAUAGAGA)-5' RNA assessed as change in melting temperature by spectrophotometry
Nucleic Acid [3] = test: Binding affinity to 3'-r(CUUCCAGUUGCAUAGAGA)-5' RNA assessed as change in melting temperature by spectrophotometry
Nucleic Acid [4] = test: Binding affinity to 3'-r(CUUCCAGUUACAUAGAGA)-5' RNA assessed as change in melting temperature by spectrophotometry
Nucleic Acid [5] = test: Binding affinity to 3'-r(CUUCCAGUUACAUAGAGA)-5' RNA assessed as fluorescence quenching by spectrophotometry
Nucleic Acid [6] = test: Binding affinity to 3'-r(CUUCCAGUUCCAUAGAGA)-5' RNA assessed as fluorescence quenching by spectrophotometry
Nucleic Acid [7] = test: Binding affinity to 3'-r(CUUCCAGUUGCAUAGAGA)-5' RNA assessed as fluorescence quenching by spectrophotometry
Nucleic Acid [8] = test: Binding affinity to 3'-r(CUUCCAGUUUCAUAGAGA)-5' RNA assessed as fluorescence quenching by spectrophotometry

Q: How did the ΔTm (Nucleic Acid [1]) turn out when `Cc1cn([C@H]2C[C@H](OP(=O)(O)OC[C@H]3O[C@@H](n4ccc(N)nc4=O)C[C@@H]3OP(=O)(O)OC[C@H]3O[C@@H](n4cnc5c(N)ncnc54)C[C@@H]3OP(=O)(O)OC[C@H]3O[C@@H](n4cnc5c(N)ncnc54)C[C@@H]3OP(=O)(O)OC[C@H](Cn3cnc4cc5c(N)nc(N)nc5nc43)OP(=O)(O)OC[C@H]3O[C@@H](n4cnc5c(N)ncnc54)C[C@@H]3OP(=O)(O)OC[C@H]3O[C@@H](n4cnc5c(=O)[nH]c(N)nc54)C[C@@H]3OP(=O)(O)CC[C@H]3O[C@@H](n4cc(C)c(=O)[nH]c4=O)C[C@@H]3OP(=O)(O)OC[C@H]3O[C@@H](n4cnc5c(N)ncnc54)C[C@@H]3OP(=O)(O)OC[C@H]3O[C@@H](n4cc(C)c(=O)[nH]c4=O)C[C@@H]3OP(=O)(O)OC[C@H]3O[C@@H](n4ccc(N)nc4=O)C[C@@H]3OP(=O)(O)OC[C@H]3O[C@@H](n4cc(C)c(=O)[nH]c4=O)C[C@@H]3OP(=O)(O)OC[C@H]3O[C@@H](n4ccc(N)nc4=O)C[C@@H]3OP(=O)(O)OC[C@H]3O[C@@H](n4cc(C)c(=O)[nH]c4=O)C[C@@H]3O)[C@@H](COP(=O)(O)O[C@H]3C[C@H](n4cnc5c(=O)[nH]c(N)nc54)O[C@@H]3COP(=O)(O)O[C@H]3C[C@H](n4cnc5c(=O)[nH]c(N)nc54)O[C@@H]3COP(=O)(O)O[C@H]3C[C@H](n4cnc5c(N)ncnc54)O[C@@H]3COP(=O)(O)O[C@H]3C[C@H](n4cnc5c(N)ncnc54)O[C@@H]3COP(=O)(O)O[C@H]3C[C@H](n4cnc5c(=O)[nH]c(N)nc54)O[C@@H]3CO)O2)c(=O)nc1N` was run?
A: Its ΔTm is -3.4 °C.

Q: What about the Activity (Nucleic Acid [2]) of the same compound?
A: Its Activity is “inactive”.

Q: What about the ΔTm (Nucleic Acid [3]) of the same compound?
A: Its ΔTm is -2.9 °C.

Q: What about the ΔTm (Nucleic Acid [4]) of the same compound?
A: Its ΔTm is -3.5 °C.

Q: And the Activity (Nucleic Acid [5])?
A: Its Activity is “Active”.

Q: What about the Activity (Nucleic Acid [6]) of the same compound?
A: The Activity was “Active”.

Q: And the Activity (Nucleic Acid [7])?
A: Its Activity is “Active”.

Q: What about the Activity (Nucleic Acid [8]) of the same compound?
A: Its Activity is “inactive”.

Q: With `Cc1cn([C@H]2C[C@H](OP(=O)(O)OC[C@H]3O[C@@H](n4ccc(N)nc4=O)C[C@@H]3OP(=O)(O)OC[C@H]3O[C@@H](n4cnc5c(N)ncnc54)C[C@@H]3OP(=O)(O)OC[C@H]3O[C@@H](n4cnc5c(N)ncnc54)C[C@@H]3OP(=O)(O)OC[C@H](Cn3cnc4cc5c(N)nc(N)nc5nc43)OP(=O)(O)OC[C@H]3O[C@@H](n4cc(C)c(=O)[nH]c4=O)C[C@@H]3OP(=O)(O)OC[C@H]3O[C@@H](n4cnc5c(=O)[nH]c(N)nc54)C[C@@H]3OP(=O)(O)CC[C@H]3O[C@@H](n4cc(C)c(=O)[nH]c4=O)C[C@@H]3OP(=O)(O)OC[C@H]3O[C@@H](n4cnc5c(N)ncnc54)C[C@@H]3OP(=O)(O)OC[C@H]3O[C@@H](n4cc(C)c(=O)[nH]c4=O)C[C@@H]3OP(=O)(O)OC[C@H]3O[C@@H](n4ccc(N)nc4=O)C[C@@H]3OP(=O)(O)OC[C@H]3O[C@@H](n4cc(C)c(=O)[nH]c4=O)C[C@@H]3OP(=O)(O)OC[C@H]3O[C@@H](n4ccc(N)nc4=O)C[C@@H]3OP(=O)(O)OC[C@H]3O[C@@H](n4cc(C)c(=O)[nH]c4=O)C[C@@H]3O)[C@@H](COP(=O)(O)O[C@H]3C[C@H](n4cnc5c(=O)[nH]c(N)nc54)O[C@@H]3COP(=O)(O)O[C@H]3C[C@H](n4cnc5c(=O)[nH]c(N)nc54)O[C@@H]3COP(=O)(O)O[C@H]3C[C@H](n4cnc5c(N)ncnc54)O[C@@H]3COP(=O)(O)O[C@H]3C[C@H](n4cnc5c(N)ncnc54)O[C@@H]3COP(=O)(O)O[C@H]3C[C@H](n4cnc5c(=O)[nH]c(N)nc54)O[C@@H]3CO)O2)c(=O)nc1N` as the compound, how does the ΔTm (Nucleic Acid [1]) read?
A: Its ΔTm is -3.5 °C.

Q: What about the ΔTm (Nucleic Acid [2]) of the same compound?
A: Its ΔTm is -1.8 °C.

Q: What about the ΔTm (Nucleic Acid [3]) of the same compound?
A: The ΔTm was -1.9 °C.

Q: And the Activity (Nucleic Acid [4])?
A: The Activity was “inactive”.

Q: And the Activity (Nucleic Acid [5])?
A: The Activity was “inactive”.

Q: What about the Activity (Nucleic Acid [6]) of the same compound?
A: The Activity was “Active”.

Q: What about the Activity (Nucleic Acid [7]) of the same compound?
A: The Activity was “inactive”.

Q: And the Activity (Nucleic Acid [8])?
A: The Activity was “Active”.

Q: What does the source list for `Cc1cn([C@H]2C[C@H](OP(=O)(O)OC[C@H]3O[C@@H](n4ccc(N)nc4=O)C[C@@H]3OP(=O)(O)OC[C@H]3O[C@@H](n4cnc5c(N)ncnc54)C[C@@H]3OP(=O)(O)OC[C@H]3O[C@@H](n4cnc5c(N)ncnc54)C[C@@H]3OP(=O)(O)OC[C@H]3O[C@@H](n4cc(C)c(=O)[nH]c4=O)C[C@@H]3OP(=O)(O)OC[C@H](Cn3cnc4cc5c(N)ncnc5nc43)OP(=O)(O)OC[C@H]3O[C@@H](n4cnc5c(=O)[nH]c(N)nc54)C[C@@H]3OP(=O)(O)CC[C@H]3O[C@@H](n4cc(C)c(=O)[nH]c4=O)C[C@@H]3OP(=O)(O)OC[C@H]3O[C@@H](n4cnc5c(N)ncnc54)C[C@@H]3OP(=O)(O)OC[C@H]3O[C@@H](n4cc(C)c(=O)[nH]c4=O)C[C@@H]3OP(=O)(O)OC[C@H]3O[C@@H](n4ccc(N)nc4=O)C[C@@H]3OP(=O)(O)OC[C@H]3O[C@@H](n4cc(C)c(=O)[nH]c4=O)C[C@@H]3OP(=O)(O)OC[C@H]3O[C@@H](n4ccc(N)nc4=O)C[C@@H]3OP(=O)(O)OC[C@H]3O[C@@H](n4cc(C)c(=O)[nH]c4=O)C[C@@H]3O)[C@@H](COP(=O)(O)O[C@H]3C[C@H](n4cnc5c(=O)[nH]c(N)nc54)O[C@@H]3COP(=O)(O)O[C@H]3C[C@H](n4cnc5c(=O)[nH]c(N)nc54)O[C@@H]3COP(=O)(O)O[C@H]3C[C@H](n4cnc5c(N)ncnc54)O[C@@H]3COP(=O)(O)O[C@H]3C[C@H](n4cnc5c(N)ncnc54)O[C@@H]3COP(=O)(O)O[C@H]3C[C@H](n4cnc5c(=O)[nH]c(N)nc54)O[C@@H]3CO)O2)c(=O)nc1N`?
A: Activity (Nucleic Acid [5]): inactive; Activity (Nucleic Acid [6]): Active; Activity (Nucleic Acid [7]): Active; Activity (Nucleic Acid [8]): Active

Q: For `Cc1cn([C@H]2C[C@H](OP(=O)(O)OC[C@H]3O[C@@H](n4ccc(N)nc4=O)C[C@@H]3OP(=O)(O)OC[C@H]3O[C@@H](n4cnc5c(N)ncnc54)C[C@@H]3OP(=O)(O)OC[C@H]3O[C@@H](n4cnc5c(N)ncnc54)C[C@@H]3OP(=O)(O)OC[C@H]3O[C@@H](n4ccc(N)nc4=O)C[C@@H]3OP(=O)(O)OC[C@H](Cn3cnc4cc5c(N)ncnc5nc43)OP(=O)(O)OC[C@H]3O[C@@H](n4cnc5c(=O)[nH]c(N)nc54)C[C@@H]3OP(=O)(O)CC[C@H]3O[C@@H](n4cc(C)c(=O)[nH]c4=O)C[C@@H]3OP(=O)(O)OC[C@H]3O[C@@H](n4cnc5c(N)ncnc54)C[C@@H]3OP(=O)(O)OC[C@H]3O[C@@H](n4cc(C)c(=O)[nH]c4=O)C[C@@H]3OP(=O)(O)OC[C@H]3O[C@@H](n4ccc(N)nc4=O)C[C@@H]3OP(=O)(O)OC[C@H]3O[C@@H](n4cc(C)c(=O)[nH]c4=O)C[C@@H]3OP(=O)(O)OC[C@H]3O[C@@H](n4ccc(N)nc4=O)C[C@@H]3OP(=O)(O)OC[C@H]3O[C@@H](n4cc(C)c(=O)[nH]c4=O)C[C@@H]3O)[C@@H](COP(=O)(O)O[C@H]3C[C@H](n4cnc5c(=O)[nH]c(N)nc54)O[C@@H]3COP(=O)(O)O[C@H]3C[C@H](n4cnc5c(=O)[nH]c(N)nc54)O[C@@H]3COP(=O)(O)O[C@H]3C[C@H](n4cnc5c(N)ncnc54)O[C@@H]3COP(=O)(O)O[C@H]3C[C@H](n4cnc5c(N)ncnc54)O[C@@H]3COP(=O)(O)O[C@H]3C[C@H](n4cnc5c(=O)[nH]c(N)nc54)O[C@@H]3CO)O2)c(=O)nc1N`, which Activity (Nucleic Acid [5]) is on record?
A: The Activity was “Active”.

Q: And the Activity (Nucleic Acid [6])?
A: The Activity was “Active”.

Q: And the Activity (Nucleic Acid [7])?
A: The Activity was “Active”.

Q: What about the Activity (Nucleic Acid [8]) of the same compound?
A: Its Activity is “Active”.
